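96-well plates; 48 h exposure; 5 concentrations. Endpoints by linear interpolation between flanking doses. Not reached: highest tested concentration assigned. GI50 marks 50% less growth. Definition used: TGI = concentration required for complete inhibition of growth.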
Key:
Test in all cases: growth of human tumour cells (NCI), 48 h
[1] = tested on: NCI-H460 lung
[2] = tested on: SK-MEL-2 melanoma
[3] = tested on: A549 NSCLC
[4] = tested on: RXF 393 renal
[5] = tested on: OVCAR-4 ovarian
[6] = tested on: OVCAR-8 ovarian
[7] = tested on: MCF7 breast
[8] = tested on: IGROV1 ovarian
[9] = tested on: NCI-H23 lung
[10] = tested on: OVCAR-3 ovarian
[11] = tested on: LOX IMVI melanoma
[12] = tested on: CCRF-CEM leukemia
[13] = tested on: HOP-62 NSCLC
[14] = tested on: UACC-257 melanoma
[15] = tested on: MDA-MB-435
[16] = tested on: OVCAR-5 ovarian
[17] = tested on: DU-145 prostate
[18] = tested on: SF-539 CNS
[19] = tested on: SF-268 CNS
[20] = tested on: 786-0 renal
[21] = tested on: SK-MEL-28 melanoma
[22] = tested on: HT29 colon
[23] = tested on: MDA-MB-231 breast
[24] = tested on: TK-10 renal
[25] = tested on: SW-620 colon
[26] = tested on: NCI-H226 lung
[27] = tested on: HOP-92 NSCLC
[28] = tested on: T-47D breast
[29] = tested on: NCI/ADR-RES ovarian
[30] = tested on: HCC-2998 colon
[31] = tested on: ACHN renal
[32] = tested on: SR leukemia
[33] = tested on: EKVX NSCLC
[34] = tested on: KM12 colon
[35] = tested on: HL-60(TB) leukemia
[36] = tested on: UACC-62 melanoma
[37] = tested on: M14 melanoma
[38] = tested on: SK-OV-3 ovarian
[39] = tested on: HCT-116 colon
[40] = tested on: SNB-19 CNS
[41] = tested on: MALME-3M melanoma
[42] = tested on: U251 CNS
[43] = tested on: SNB-75 CNS
[44] = tested on: SN12C renal
[45] = tested on: BT-549 breast
[46] = tested on: A498 renal
[47] = tested on: RPMI-8226 leukemia
[48] = tested on: K-562 leukemia
[49] = tested on: SK-MEL-5 melanoma
[50] = tested on: CAKI-1 renal
[51] = tested on: HCT-15 colon
[52] = tested on: UO-31 renal
[53] = tested on: COLO 205 colon
[54] = tested on: MOLT-4 leukemia
[55] = tested on: SF-295 CNS
[56] = tested on: HS 578T breast
[57] = tested on: NCI-H522 lung
[58] = tested on: PC-3 prostate
[59] = tested on: MDA-N

CCCCCCn1c(-c2ccc(C(=O)O/N=C(\N)c3ccc4c(c3)OCO4)cc2)nc(-c2ccccc2)c1-c1ccccc1
GI50 [1]: 2.08 µM
TGI [1]: 4.57 µM
GI50 [2]: 4.19 µM
TGI [2]: 21.7 µM
GI50 [3]: 1.41 µM
TGI [3]: 3.68 µM
GI50 [4]: 1.77 µM
TGI [4]: 3.88 µM
GI50 [5]: 2.21 µM
TGI [5]: 7 µM
GI50 [6]: 2.46 µM
TGI [6]: 7.09 µM
GI50 [7]: 1.58 µM
TGI [7]: 3.5 µM
GI50 [8]: 0.463 µM
TGI [8]: 1.93 µM
GI50 [9]: 1.48 µM
TGI [9]: 3.05 µM
GI50 [10]: 2.48 µM
TGI [10]: 7.87 µM
GI50 [11]: 0.173 µM
TGI [11]: 0.329 µM
GI50 [12]: 1.29 µM
TGI [12]: 4.25 µM
GI50 [13]: 2.11 µM
TGI [13]: 4.71 µM
GI50 [14]: 10.5 µM
TGI [14]: 43.2 µM
GI50 [15]: 1.77 µM
TGI [15]: 3.35 µM
GI50 [16]: 2.9 µM
TGI [16]: 13.8 µM
GI50 [17]: 1.33 µM
TGI [17]: 2.66 µM
GI50 [18]: 1.72 µM
TGI [18]: 3.2 µM
GI50 [19]: 2.11 µM
TGI [19]: 4.64 µM
GI50 [20]: 1.02 µM
TGI [20]: 2.56 µM
GI50 [21]: 4.47 µM
TGI [21]: 22.7 µM
GI50 [22]: 3.64 µM
TGI [22]: 39.1 µM
GI50 [23]: 2.41 µM
TGI [23]: 6.72 µM
GI50 [24]: 1.94 µM
TGI [24]: 3.61 µM
GI50 [25]: 2.8 µM
TGI [25]: 12 µM
GI50 [26]: 3.47 µM
TGI [26]: 15.9 µM
GI50 [27]: 1.48 µM
TGI [27]: 3.3 µM
GI50 [28]: 2.03 µM
TGI [28]: 5.11 µM
GI50 [29]: 1.68 µM
TGI [29]: 3.65 µM
GI50 [30]: 2.96 µM
TGI [30]: 10.4 µM
GI50 [31]: 0.387 µM
TGI [31]: 1.46 µM
GI50 [32]: 0.28 µM
TGI [32]: 1.43 µM
GI50 [33]: 1.76 µM
TGI [33]: 3.96 µM
GI50 [34]: 3.9 µM
TGI [34]: > 100 µM
GI50 [35]: 1.42 µM
TGI [35]: 3.49 µM
GI50 [36]: 2.87 µM
TGI [36]: 10.5 µM
GI50 [37]: 3.75 µM
TGI [37]: 22.1 µM
GI50 [38]: 10.4 µM
TGI [38]: 64.3 µM
GI50 [39]: 1.59 µM
TGI [39]: 3.34 µM
GI50 [40]: 3.24 µM
TGI [40]: 12.2 µM
GI50 [41]: 1.83 µM
TGI [41]: 4.06 µM
GI50 [42]: 1.74 µM
TGI [42]: 3.81 µM
GI50 [43]: 1.7 µM
TGI [43]: 4.9 µM
GI50 [44]: 1.87 µM
TGI [44]: 4.09 µM
GI50 [45]: 2.02 µM
TGI [45]: 5.41 µM
GI50 [46]: 1.01 µM
TGI [46]: 3.86 µM
GI50 [47]: 1.94 µM
TGI [47]: 5.25 µM
GI50 [48]: 1.92 µM
TGI [48]: 5.06 µM
GI50 [49]: 2.22 µM
TGI [49]: 4.93 µM
GI50 [50]: 1.39 µM
TGI [50]: 2.86 µM
GI50 [51]: 1.61 µM
TGI [51]: 3.34 µM
GI50 [52]: 1.28 µM
TGI [52]: 2.59 µM
GI50 [53]: 2.15 µM
TGI [53]: 5.37 µM
GI50 [54]: 1.74 µM
TGI [54]: 4.55 µM
GI50 [55]: 1.69 µM
TGI [55]: 3.35 µM
GI50 [56]: 1.64 µM
TGI [56]: 3.95 µM
GI50 [57]: 1.81 µM
TGI [57]: 3.92 µM
GI50 [58]: 2.62 µM
TGI [58]: 11.3 µM

CNc1nc(N)nc(Nc2ccc(I)cc2)c1N=O
TGI [1]: > 100 µM
TGI [2]: > 100 µM
TGI [3]: > 100 µM
TGI [4]: > 100 µM
TGI [6]: > 100 µM
TGI [59]: > 100 µM
TGI [7]: > 100 µM
TGI [8]: > 100 µM
TGI [9]: > 100 µM
TGI [10]: > 100 µM
TGI [11]: > 100 µM
TGI [12]: > 100 µM
TGI [13]: > 100 µM
TGI [14]: > 100 µM
TGI [15]: > 100 µM
TGI [16]: > 100 µM
TGI [17]: > 100 µM
TGI [18]: > 100 µM
TGI [19]: > 100 µM
TGI [20]: > 100 µM
TGI [21]: > 100 µM
TGI [22]: > 100 µM
TGI [23]: > 100 µM
TGI [24]: > 100 µM
TGI [25]: > 100 µM
TGI [29]: > 100 µM
TGI [30]: > 100 µM
TGI [31]: > 100 µM
TGI [32]: > 100 µM
TGI [33]: > 100 µM
TGI [34]: > 100 µM
TGI [35]: > 100 µM
TGI [36]: > 100 µM
TGI [39]: > 100 µM
TGI [40]: > 100 µM
TGI [41]: > 100 µM
TGI [43]: > 100 µM
TGI [44]: > 100 µM
TGI [45]: > 100 µM
TGI [47]: > 100 µM
TGI [48]: > 100 µM
TGI [49]: > 100 µM
TGI [51]: > 100 µM
TGI [52]: > 100 µM
TGI [53]: > 100 µM
TGI [54]: > 100 µM
TGI [55]: > 100 µM
TGI [56]: > 100 µM
TGI [57]: > 100 µM
TGI [58]: > 100 µM
